A word on the MIC: it is the smallest concentration in the dilution series that meets the test's criterion for growth inhibition. For orientation: koff means a measure of how fast the partners let go of each other. A lower koff goes with slow dissociation. Broadly, the kon is the rate constant with which the complex forms. A low value points to slower complex formation.

One assay concerns E. coli ATCC25922. It counts as cell-based. As to conditions: ATCC25922, 2 h. The method, then: (§1) Radial diffusion assay using double-layered agarose involved incubating ~ 2 x 10^6 mid-log phase bacterial cells with 50 nmol of peptide solution in nutrient-poor agarose at 37°C for 3 h. […] Minimum inhibitory concentration (MIC) was determined by broth microdilution method in which ~10^4 bacterial cells in 100 µl of 10 mM phosphate buffer were incubated for with serially diluted peptide solution in a 96-well microtiter plate for 2 hrs at 37°C. Addition of LB medium subsequently was used to ascertain the minimum peptide concentration sufficient to prevent bacterial growth, observable at OD600.

The subject of assay [1] is E. coli BL21λD3. Type of assay: cell-based. As to conditions: BL21λD3, 2 h. The method, then:
as §1

Assay [2] deals with different bacterial strains. The assay is described as follows: Antimicrobial activity against different bacterial strains (radial diffusion, MIC). Type of assay: cell-based. The method, then: as §1
Assay [3] deals with E. coli BL21λD3. Put plainly: Radial diffusion assay, E. coli BL21λD3. As to conditions: 50 nmol of peptide, 37°C for 3 h. Type of assay: cell-based. The method, then: as §1
Another assay concerns topoisomerase I. As to conditions: ref [19]; cited from earlier work. The text has this:
(§2) It is now well established that antimicrobial peptides are an important component of the innate defenses in a wide variety of species. They display broad spectrum of activity, rapid killing kinetics, and a lower incidence of generating resistance and are being increasingly explored as an alternative to conventional antibiotics especially as more and more drug resistant strains emerge. As most of these peptides kill microorganisms rapidly as compared to other antibiotics, development of resistance to them also is less likely. One of the large classes of antimicrobial pepti ...

For assay [4] the following is noted: ref [20]; cited from earlier work.
Description: as §2

Another assay concerns calmodulin. To be noted: ref [19]; cited from earlier work.
Description: as §2

For the next assay, the system named is DNA. As to conditions: ref [17],[18]; cited from earlier work.
Description: as §2

For the next assay, the system named is mAb 6C6D7. Put plainly: SPR binding of K-tritrpticin (immobilised) to mAb 6C6D7. Also on record: species or system BALB/c mice. As to conditions: for ka (rate of association) / kd (rate of dissociation): BIAcore 2000, CM4 chip, bivalent model; for Kd: KD = kdiss/kass, read-out: KD (dissociation constant); for ΔGeq (Gibbs free energy at equilibrium): ΔGeq = RTlnKD. The method, then: (§3) Affinity measurements were based on surface plasmon resonance (SPR) technique, carried out on BIAcore 2000 (GE Healthcare). K-tritrpticin was amine coupled to a CM4 chip (~6 resonance units) and mAb 6C6D7 was injected as analyte with a 6 min association/15 min dissociation phase. Regeneration was achieved by 0.1 N HCl. Interaction curves were simultaneously fit using bivalent model in BIAevaluation program to determine KD = kdiss/kass and ΔGeq = RTlnKD, R is the universal gas constant and T is the temperature in kelvin. The temperature sensitivity of Ag association and dissociation rates of the Ab was assessed on the basis of the Arrhenius plots. The slopes of the Arrhenius plots provide the activation energy (Ea) for the corresponding steps. The individual thermodynamic parameters were calculated using the following equations: ΔHa/d = Ea-RT; ln(ka/d/T) = -ΔHa/d/RT + […] + ln(K'/h). In these equations K' represents Boltzmann’s constant and h the Planck’s constant. Using these equations, the corresponding values of ΔH, T∆S, and ΔG for association and dissociation as well as the corresponding net values at equilibrium were calculated.
On the technique in general: In SPR one partner is held on a chip, and binding of the other changes the refractive index at the surface.

For assay [5], the target named is T1, K-tritrpticin (pig).
T1 sequence (peptide): KVRRFPWWWPFLRR
Put plainly: SPR; BIAcore 2000; K-tritrpticin amine coupled to a CM4 chip (~6 RU), mAb 6C6D7 as analyte, 6 min association/15 min dissociation; bivalent model; 20 C.

The target of assay [6] is T1, K-tritrpticin (pig). The assay is described as follows: SPR; BIAcore 2000; K-tritrpticin amine coupled to a CM4 chip (~6 RU), mAb 6C6D7 as analyte, 6 min association/15 min dissociation; bivalent model; 30 C.
The target of assay [7] is T1, K-tritrpticin (pig). Put plainly: SPR; BIAcore 2000; K-tritrpticin amine coupled to a CM4 chip (~6 RU), mAb 6C6D7 as analyte (62.5-1000 nM), 6 min association/15 min dissociation; bivalent model; 25 C.
For assay [8], the target named is T1, K-tritrpticin (pig). Put plainly: SPR; BIAcore 2000; K-tritrpticin amine coupled to a CM4 chip (~6 RU), mAb 6C6D7 as analyte, 6 min association/15 min dissociation; bivalent model; 15 C.
For assay [9], the target named is T1, K-tritrpticin (pig). The assay is described as follows: SPR; BIAcore 2000; K-tritrpticin amine coupled to a CM4 chip (~6 RU), mAb 6C6D7 as analyte, 6 min association/15 min dissociation; bivalent model; 35 C.
Another assay relates to BSA. The assay is described as follows: ELISA of hybridoma clones on BSA (negative control). It counts as binding. The text has this:
(§4) The sera from the immunized mouse were checked for anti-tritrpticin antibody titers. The highest responder of the group of mice was then sacrificed to harvest B cells from the spleen. The cells were allowed to fuse with the SP2/0 myeloma cells, maintained in log phase, in the presence of PEG1600 (Sigma-Aldrich). The cells were subjected to hypoxanthine-aminopterin-thymidine (Sigma) selection in DMEM (PAA Laboratories GmbH, Austria) in which only the hybrid cells are able to survive and grow. The supernatant of the wells with colonies of hybrid cells was screened for the presence of peptide recognizing Ab by ELISA, in which tritrpticin was used as coating antigen. The positive clones were further subcloned using limited dilution technique to ensure monoclonality.
(§5) The binding of the Ab from cell supernatant or in purified form, to the various peptide ligands was assayed by indirect ELISA. The peptide analogs were used as coating Ag at a concentration of 10 µg per well on 96-well immunosorbent plates. […] HRP –labeled goat anti-mouse IgG was used as secondary Ab (Jackson Immuno Research) and o-phenylenediamine (Sigma) and H2O2 were used as peroxidase substrate. Absorbance was recorded at 490 nm after addition of 1 N H2SO4.
(ELISA stands for enzyme-linked immunosorbent assay.)

Assay [10] is described as follows: ELISA of hybridoma clones on indolicidin. Type of assay: binding.
Description: as §4, §5

Assay [11] in a line: ELISA of hybridoma clones on tritrpticin. Type of assay: binding. To be noted: culture supernatant screening.
Description: as §4, §5

Assay [12] in a line: SPR binding of mAb 6C6D7 (analyte) to peptide antigen K-tritrpticin. The method, then:
as §3

The mark [13] stands for this setting: equilibrium, all temperatures 15-35 °C, Arrhenius plot.

≈ marks a conversion by molar mass, not a printed value. Entries after “also recorded” stand apart in the source; their conditions may differ. Where two headings read alike, the source gives them in different places. Where no end group is shown, it is not given here.

Consider `CC(C)C[C@H](NC(=O)[C@H](Cc1ccccc1)NC(=O)[C@@H]1CCCN1C(=O)[C@H](Cc1c[nH]c2ccccc12)NC(=O)[C@H](Cc1c[nH]c2ccccc12)NC(=O)[C@H](Cc1c[nH]c2ccccc12)NC(=O)[C@@H]1CCCN1C(=O)[C@H](Cc1ccccc1)NC(=O)[C@H](CCCNC(=N)N)NC(=O)[C@H](CCCNC(=N)N)NC(=O)[C@@H](N)C(C)C)C(=O)N[C@@H](CCCNC(=N)N)C(=O)N[C@@H](CCCNC(=N)N)C(=O)O` [Tritrpticin], for which the MIC against E. coli ATCC25922 and against E. coli BL21λD3 [1] was 3.12 µM (≈ 5.94 µg/mL) throughout.

“EHGTPPRVMSSM [unrelated peptide used as negative control, reference compound]”: the “formation of clearance zone” value in [2] (50 nmoles of peptide, radial diffusion, different bacterial strains) was “did not led to the formation of clearance zone”; in the assay on E. coli BL21λD3 [3], “did not led to the formation of clearance zone”.

For “ILPWKWPWWPWRR [indolicidin, closely related cathelicidin peptide indolicidin ([…])]”, in the assay on topoisomerase I, the “interaction with topoisomerase I” value is “interaction”. In assay [4], the “interaction with ATP” value is on record as “interaction”. Further, the interaction with calmodulin result in the assay on calmodulin is “interaction”. In addition, the “interaction with DNA” value in the assay with DNA is “interaction”.

For “K-tritrpticin: tritrpticin with lysine introduced at the N terminus (KVRRFPWWWPFLRR)”, the “ka (rate of association)” value in the assay on mAb 6C6D7 (15 °C) was 24400 M⁻¹ s⁻¹; in the assay on mAb 6C6D7 (20 °C) it was 37900 M⁻¹ s⁻¹; in the assay on mAb 6C6D7 (25 °C), 39100 M⁻¹ s⁻¹; in the assay on mAb 6C6D7 (35 °C) it was 54100 M⁻¹ s⁻¹. For the same molecule, the “kd (rate of dissociation)” value at mAb 6C6D7 (15 °C) turned out to be 0.00515 s⁻¹; on mAb 6C6D7 (20 °C), 0.0115 s⁻¹; at mAb 6C6D7 (25 °C), 0.0137 s⁻¹; at mAb 6C6D7 (30 °C), 0.0231 s⁻¹; on mAb 6C6D7 (35 °C), 0.0343 s⁻¹. The Kd was found to be 211 nM on mAb 6C6D7 (15 °C); 303 nM at mAb 6C6D7 (20 °C); 350 nM at mAb 6C6D7 (25 °C); 545 nM on mAb 6C6D7 (30 °C); 634 nM on mAb 6C6D7 (35 °C). In addition, the “ΔGeq (Gibbs free energy at equilibrium)” value in the assay on mAb 6C6D7 (15 °C) was -8.80 kcal/mol; in the assay with mAb 6C6D7 (20 °C), -8.74 kcal/mol; in the assay with mAb 6C6D7 (25 °C), -8.80 kcal/mol; in the assay with mAb 6C6D7 (30 °C) it was -8.68 kcal/mol; with mAb 6C6D7 (35 °C) it was -8.73 kcal/mol.

For the molecule YHDRPPPRPFKH-OH [12PhD1], the “antimicrobial activity compared with tritrpticin” value in assay [2] is given as “lower though qualitatively similar broad spectrum antimicrobial activity as tritrpticin”. The antibiotic activity entry in assay [2] (radial diffusion and MIC, bacterial strains) is reported as “broad spectrum antibiotic activity”. Besides, the minimum inhibitory concentration (MIC) against E. coli ATCC25922 and in the assay on E. coli BL21λD3 [1] was 400 µM throughout.

B1: anti-tritrpticin monoclonal antibody 6C6D7 (antibody, V domains shown)
VH: VELQESGPELVKPGASVKVSCKASGYSSTDYNMNWVKQSHGKSLEWIGSFDPYNGGITYNQKFEGKATLTVDKSSNTAFMHLNSLTSEDSAVYYCAKYFGYDAWFAYWGQGTLVTVST
VL: FIVMTQTPASLAVSLGQRATISCKASQSVDYGGDSYLNWYQQKPGQPPKLLIYAASNLESGIPARFSGSGSGTDFTLNIHPVEEEDAATYFCQQSHEDPLTFGAGTKLELR
As to B1, the Kd turned out to be 303 nM in the assay with K-tritrpticin (pig) [5]; 545 nM in the assay with K-tritrpticin (pig) [6]; 350 nM with K-tritrpticin (pig) [7]; 211 nM in the assay with K-tritrpticin (pig) [8]; 634 nM with K-tritrpticin (pig) [9]. For the same molecule, the koff with K-tritrpticin (pig) [5] turned out to be 0.0115 s⁻¹; in the assay with K-tritrpticin (pig) [6], 0.0231 s⁻¹; with K-tritrpticin (pig) [7], 0.0137 s⁻¹; with K-tritrpticin (pig) [8] it was 0.00515 s⁻¹; in the assay with K-tritrpticin (pig) [9] it was 0.0343 s⁻¹. Further, the kon in the assay with K-tritrpticin (pig) [5] was determined as 37900 M⁻¹ s⁻¹; with K-tritrpticin (pig) [6], 44200 M⁻¹ s⁻¹; with K-tritrpticin (pig) [7], 39100 M⁻¹ s⁻¹; in the assay with K-tritrpticin (pig) [8], 24400 M⁻¹ s⁻¹; with K-tritrpticin (pig) [9], 54100 M⁻¹ s⁻¹.

B2: 6C6: anti-tritrpticin hybridoma clone, subcloned as 6C6D7 (antibody, V domains shown)
VH: VELQESGPELVKPGASVKVSCKASGYSSTDYNMNWVKQSHGKSLEWIGSFDPYNGGITYNQKFEGKATLTVDKSSNTAFMHLNSLTSEDSAVYYCAKYFGYDAWFAYWGQGTLVTVST
VL: FIVMTQTPASLAVSLGQRATISCKASQSVDYGGDSYLNWYQQKPGQPPKLLIYAASNLESGIPARFSGSGSGTDFTLNIHPVEEEDAATYFCQQSHEDPLTFGAGTKLELR
Turning to B2, in the assay with BSA, the “binding to BSA (ELISA)” value is “negligible binding; also recorded: not able to bind”. The “binding to indolicidin (ELISA)” value in [10] is reported as “not able to bind”. Moreover, the “binding to tritrpticin (ELISA)” value in [11] is reported as “significant binding”.

B3: mAb 6C6D7: anti-tritrpticin monoclonal antibody, 6C6 subcloned as 6C6D7 (antibody, V domains shown)
VH: VELQESGPELVKPGASVKVSCKASGYSSTDYNMNWVKQSHGKSLEWIGSFDPYNGGITYNQKFEGKATLTVDKSSNTAFMHLNSLTSEDSAVYYCAKYFGYDAWFAYWGQGTLVTVST
VL: FIVMTQTPASLAVSLGQRATISCKASQSVDYGGDSYLNWYQQKPGQPPKLLIYAASNLESGIPARFSGSGSGTDFTLNIHPVEEEDAATYFCQQSHEDPLTFGAGTKLELR
For the molecule B3, in assay [12] (15 °C to 35 °C), the “fold decrease in affinity (KD)” value is 3 fold, the “fold increase in kdiss” value was “approximately 7 fold” and the “fold increase in the association rate constant” value was 2 fold. In addition, in assay [12] (25 °C), the kass amounted to 39100 M⁻¹ s⁻¹ and the kdiss came out at 0.0137 s⁻¹. The Kd in [12] (25 °C, read-out: affinity (KD)) was found to be 350 nM. For the same molecule, the “temperature sensitivity of dissociation phase” value in [12] (Arrhenius plots, 15-35 °C) is “more sensitive to variation in temperature in comparison with the association phase”. In assay [12] (setting [13]), the “enthalpy contribution to binding (ΔH)” value was “marginally unfavorable” and the “entropy contribution to binding (TΔS)” value is given as “highly favorable”.

(Values after article PMC3782441, “Putative Bioactive Motif of Tritrpticin Revealed by an Antibody with Biological Receptor-Like Properties” (PLoS ONE, 2013).)
